Where a chain is given by its changes, count along the chain named.
Assays:
[1] = target: T1, PNPLA3-tagRFP (Homo sapiens, UniProt Q9NST1); assay: Huh7 PNPLA3-tagRFP (WT) reduction on lipid droplets; assay type: cell-based; details: representative dose-response curve, Figure 3B
T1 construct: host or cells: Huh7
T1 sequence (Q9NST1 1-481): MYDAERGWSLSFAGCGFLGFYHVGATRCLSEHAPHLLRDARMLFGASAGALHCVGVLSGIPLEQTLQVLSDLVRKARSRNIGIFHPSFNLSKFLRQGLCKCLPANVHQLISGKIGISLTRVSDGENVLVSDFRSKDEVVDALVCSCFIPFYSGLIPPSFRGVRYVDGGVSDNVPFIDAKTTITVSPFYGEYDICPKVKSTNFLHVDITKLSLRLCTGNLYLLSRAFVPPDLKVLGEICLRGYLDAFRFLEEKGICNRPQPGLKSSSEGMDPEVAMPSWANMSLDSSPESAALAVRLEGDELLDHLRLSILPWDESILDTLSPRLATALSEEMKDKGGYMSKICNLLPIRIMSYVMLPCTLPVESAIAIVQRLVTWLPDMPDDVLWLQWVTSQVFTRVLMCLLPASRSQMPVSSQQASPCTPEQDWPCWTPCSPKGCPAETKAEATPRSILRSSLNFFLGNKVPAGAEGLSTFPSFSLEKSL
Description: To confirm activity, NUV-244 was resynthesized. […] Next, to evaluate the specificity against PNPLA3 WT, Huh7 cells expressing PNPLA3-tagRFP were generated (Figures 3A and S3A). Like the mutant, PNPLA3-tagRFP localizes to lipid droplets in Huh7 cells and NUV-244 dose-dependently leads to a decrease of PNPLA3-tagRFP with a similar potency as for the mutant (Figure 3B).
For dose-response cells were seeded at 4000 c/30 μl per well in 384 well plates (Revvity, Waltham, MA, USA, PhenoPlate 384-well microplate, #6057308) and stored in a 37°C incubator with 5% CO2 and 95% humidity overnight. Compounds, serially diluted, and DMSO controls were added, and cells were incubated for another 24h. […]
Images were analyzed using Harmony (Revvity) and MetaXpress software (Molecular Devices, USA) to quantify lipid droplet morphology and PNPLA3 I148M-tagRFP intensity.
Assay plates were evaluated based on Z’ scores (>0.6) and signal-to-background ratio (>12) using Genedata Screener® for HTS and Condoseo modules (Genedata, Switzerland). […] Automated image analysis routines were set up to quantify the number, morphology and intensity of nuclei, lipid droplets and the intensity of PNPLA3 I148M-tagRFP on lipid droplets. […]

[2] = target: T2, PNPLA3 I148M (Homo sapiens, UniProt Q9NST1, I148M); assay: nanoDSF thermal shift, PNPLA3 I148M protein; assay type: binding; details: ligand 25 μM
T2 sequence (Q9NST1 1-481 I148M): T1 sequence (Q9NST1 1-481) with I148M
Source text: To investigate the mode of action of NUV-244, we evaluated its direct binding to the PNPLA3 I148M protein using nano differential scanning fluorimetry (nanoDSF). In this assay, compounds that bind to a target protein can lead to thermal stabilization, preventing protein denaturation, which is reflected in a shift of the protein melting curve.
Full-length wild-type PNPLA3 (Q9NST1), mutant PNPLA3 (I148M), and PNPLA2 (Q96AD5) were cloned into the pVL1393 vector with an N-terminal Flag-Tag. Proteins were expressed in SF9 cells infected at a multiplicity of infection (MOI) of 1 for 72 hours. Protein purification was performed using a two-step process. The first step involved affinity purification using M2 anti-Flag agarose beads. This was followed by gel filtration chromatography using a Superdex 200 column. Thermal melting experiments were carried out using a Prometheus NT.48 instrument (NanoTemper Technologies). Proteins were prepared in 20 mM Tris-HCl pH 7.4, 100 mM NaCl, 5 % Glycerol, 2 mM DTT and 0.2 mg/mL was used as a final concentration in 50 μL volume. For binding experiments, ligands were added to the mixture at a final concentration of 25 μM, DMSO was used as control. […] The intrinsic protein fluorescence at 330 and 350 nm was recorded. Data were analysed using Prometheus NT.48 software. Thermal shifts (ΔTm) were calculated, and Z-scores greater than 6 indicated robust stabilization. […]

[3] = system: LX-2 cells; assay: Incucyte growth curves, LX-2; assay type: cell-based, human; details: 1μM or 5μM; compared to DMSO
Description: Huh7, Huh7 PNPLA3 I148M, Huh7 PNPLA3, Hep3b and LX-2 cells were seeded at a concentration of 1000 cells/well in 60 μl of growth medium on 384-well microtiter plates (Revvity, Waltham, MA, USA, PhenoPlate 384-well microplate, #6057308) and stored in a 37°C incubator with 5% CO2 and 95% humidity overnight. Next day cells were treated with DMSO as control (1% final concentration) or compound (1μM or 5μM final concentration) and cell density was recorded in the Incucyte® life cell imager (Sartorius, Göttingen, Germany) every 4 hours over a period of 5 days. Growth curves were generated by monitoring confluence over time. Proliferative capacity of PNPLA3 I148M-expressing cells was compared to control cells, and the restoration of proliferative fitness was analyzed.

SMILES: Cc1cccc(Cc2nc(C)c(C(=O)Nc3cc(O)ccc3Cl)s2)c1 [NUV-244]
- EC50 [1]: 0.213 µM
- ΔTm PNPLA3 I148M [2]: 5.82 °C
- effect on proliferative capacity, LX-2 [3]: no effects
